{"source": "patent US20250197408A1", "about": "“CRYSTALLINE FORMS AND SALTS OF A PI3K INHIBITOR AND METHODS OF MAKING AND METHODS OF USE THEREOF” (Totus Medicines Inc., priority 2022, published 2025)", "key": {"[1]": {"system": "SW1463 (rectum)", "test": "Cell proliferation assay (CellTiter-Glo, 3 days treatment), SW1463", "assay_type": "cell-based", "settings": "Homo sapiens, 72 h, read-out: Absolute IC50", "excerpt": "(§1) The cell lines tested included as follows: UM-UC-3 (bladder), KYSE-410 (HN/Esophagus), SW1463 (rectum), Calu-1 (Lung), NCI-H358 (Lung), SW837 (Rectum), SW756 (Cervix), NCI-H2122 (Lung), NCI-H1373 (Lung), NCI-H1792 (Lung), NCI-H23 (Lung), MIA PaCa-2 (Pancreas), and HC44.\n(§2) Cells were recovered and maintained in appropriate culture media. The cells were harvested respectively during the logarithmic growth period. The cells were then resuspended and counted using a Vi cell counter (The cell viability be measured by trypan blue exclusion assay.). The cells were then diluted and 90 μL cell suspensions were used in 96-well plates according to plate map with final cell density. Two duplicate plates were set up. One is for day 0 reading (TO) and the other was cultured in incubator for reading at the end point. The incubated plates were incubated overnight in humidified incubator at 37° C. with 5% CO2.\n(§3) At day 0, 10 μL culture medium to each well for TO reading. 10 μL of culture medium was added to each well for TO reading. Then, 50 μl CellTiter-Glo® Reagent was added to each well. […] Luminescence was then recorded using an EnVision Multi Label Reader. […]\n(§4) For the endpoint CTG reading, 50 μL of CellTiter-Glo® Reagent were added to each well. […] Luminescence was then recorded using an EnVision Multi Label Reader. IC50's were determined for each cell line."}, "[2]": {"system": "NCI-H2122 (Lung)", "test": "Cell proliferation assay (CellTiter-Glo, 3 days treatment), NCI-H2122", "assay_type": "cell-based", "settings": "Homo sapiens, 72 h, read-out: Absolute IC50", "excerpt": "as §1, §2, §3, §4"}, "[3]": {"system": "HC44", "test": "Cell proliferation assay (CellTiter-Glo, 3 days treatment), HC44", "assay_type": "cell-based", "settings": "Homo sapiens, 72 h, HCC44 (Lung), read-out: Absolute IC50", "excerpt": "as §1, §2, §3, §4"}, "[4]": {"system": "NCI-H1373 (Lung)", "test": "Cell proliferation assay (CellTiter-Glo, 3 days treatment), NCI-H1373", "assay_type": "cell-based", "settings": "Homo sapiens, 72 h, read-out: Absolute IC50", "excerpt": "as §1, §2, §3, §4"}, "[5]": {"system": "KYSE-410 (HN/Esophagus)", "test": "Cell proliferation assay (CellTiter-Glo, 3 days treatment), KYSE-410", "assay_type": "cell-based", "settings": "Homo sapiens, 72 h, read-out: Absolute IC50", "excerpt": "as §1, §2, §3, §4"}, "[6]": {"system": "NCI-H358 (Lung)", "test": "Cell proliferation assay (CellTiter-Glo, 3 days treatment), NCI-H358", "assay_type": "cell-based", "excerpt": "as §1, §2\nAt day 0, 10 μL culture medium to each well for TO reading. Then, 50 μl CellTiter-Glo® Reagent was added to each well. The contents were then mixed for 2 minutes on an orbital shaker to facilitate cell lysis. The plates were then allowed to incubate at room temperature for 10 minutes to stabilize luminescent signal. Luminescence was then recorded using an EnVision Multi Label Reader. The test compound Compound I, and a control cisplatin, where then diluted at various concentrations from a 10 mM stock solution. Compound I was diluted and 10 μL of each 10× compound I from working solutions for a concentration ranging from 10 μM to about 0.005 μM. Cisplatin was diluted to about […] to about 150 nM. The screening plates were then placed back into the incubator for the appropriate treatment time (3 days).\nFor the endpoint CTG reading, 50 μL of CellTiter-Glo® Reagent were added to each well. The contents were then mixed for 2 minutes on an orbital shaker to facilitate cell lysis. […] Luminescence was then recorded using an EnVision Multi Label Reader. IC50's were determined for each cell line."}, "[7]": {"system": "Calu-1 (Lung)", "test": "Cell proliferation assay (CellTiter-Glo, 3 days treatment), Calu-1", "assay_type": "cell-based", "settings": "Homo sapiens, 72 h, read-out: Absolute IC50", "excerpt": "as §1, §2, §3, §4"}, "[8]": {"molecular_target": "T1, PI3K (Homo sapiens, UniProt P42336)", "T1 construct": "expressed in transfected cells; host or cells: HEK293 (Gibco 293-H, #11631017), transient transfection with FuGENE HD", "T1 sequence (P42336 whole entry)": "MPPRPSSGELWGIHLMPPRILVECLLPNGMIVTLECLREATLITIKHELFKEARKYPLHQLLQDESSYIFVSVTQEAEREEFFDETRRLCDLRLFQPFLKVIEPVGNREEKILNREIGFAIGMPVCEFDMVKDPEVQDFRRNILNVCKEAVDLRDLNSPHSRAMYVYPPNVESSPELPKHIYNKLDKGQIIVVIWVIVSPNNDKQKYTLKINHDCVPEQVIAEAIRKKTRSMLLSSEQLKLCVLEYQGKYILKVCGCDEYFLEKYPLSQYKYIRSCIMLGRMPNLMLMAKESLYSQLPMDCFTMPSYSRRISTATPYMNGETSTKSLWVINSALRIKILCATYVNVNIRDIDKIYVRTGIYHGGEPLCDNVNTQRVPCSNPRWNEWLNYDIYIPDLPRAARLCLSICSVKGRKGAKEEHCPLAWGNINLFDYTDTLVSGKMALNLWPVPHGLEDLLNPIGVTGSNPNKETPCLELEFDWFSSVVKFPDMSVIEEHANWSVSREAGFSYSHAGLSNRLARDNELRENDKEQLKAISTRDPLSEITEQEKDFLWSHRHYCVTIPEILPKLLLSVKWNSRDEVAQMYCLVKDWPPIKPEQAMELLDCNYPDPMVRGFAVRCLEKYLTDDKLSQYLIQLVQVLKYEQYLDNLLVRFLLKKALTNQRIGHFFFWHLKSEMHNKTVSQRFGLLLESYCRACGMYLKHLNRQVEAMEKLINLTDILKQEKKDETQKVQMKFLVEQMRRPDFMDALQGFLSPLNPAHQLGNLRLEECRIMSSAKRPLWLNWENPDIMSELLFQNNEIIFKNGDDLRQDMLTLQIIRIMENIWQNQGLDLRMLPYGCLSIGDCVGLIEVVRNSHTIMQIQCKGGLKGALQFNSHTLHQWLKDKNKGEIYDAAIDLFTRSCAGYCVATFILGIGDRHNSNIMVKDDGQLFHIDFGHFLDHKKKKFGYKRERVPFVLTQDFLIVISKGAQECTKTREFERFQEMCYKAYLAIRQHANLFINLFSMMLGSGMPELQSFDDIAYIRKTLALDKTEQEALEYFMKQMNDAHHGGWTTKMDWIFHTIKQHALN", "T1 sequence (P27986 whole entry partner)": "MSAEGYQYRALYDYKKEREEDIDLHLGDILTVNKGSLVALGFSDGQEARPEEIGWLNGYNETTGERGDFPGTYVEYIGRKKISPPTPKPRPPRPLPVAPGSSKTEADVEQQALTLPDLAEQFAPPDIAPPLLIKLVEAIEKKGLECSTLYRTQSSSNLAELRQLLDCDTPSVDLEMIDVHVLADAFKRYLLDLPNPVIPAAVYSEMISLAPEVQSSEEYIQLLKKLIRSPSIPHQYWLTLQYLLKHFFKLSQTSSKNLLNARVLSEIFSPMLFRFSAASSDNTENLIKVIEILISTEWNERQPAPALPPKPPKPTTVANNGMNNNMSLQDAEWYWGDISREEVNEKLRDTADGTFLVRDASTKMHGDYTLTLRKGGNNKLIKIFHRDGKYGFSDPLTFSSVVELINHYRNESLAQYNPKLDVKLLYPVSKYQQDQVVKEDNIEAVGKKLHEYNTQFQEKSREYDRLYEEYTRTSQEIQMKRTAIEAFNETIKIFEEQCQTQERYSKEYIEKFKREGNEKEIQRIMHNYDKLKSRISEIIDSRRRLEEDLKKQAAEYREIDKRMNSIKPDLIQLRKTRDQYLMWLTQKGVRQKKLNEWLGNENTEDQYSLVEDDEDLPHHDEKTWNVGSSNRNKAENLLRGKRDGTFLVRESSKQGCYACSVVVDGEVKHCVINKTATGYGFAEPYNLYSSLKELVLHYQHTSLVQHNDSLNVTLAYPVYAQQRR", "test": "NanoBRET screening in transfected HEK293 cells (binding assay, with washout)", "settings": "compound incubated overnight then washed", "method": "Human embryonic kidney 293-H (HEK 293, Gibco 293-H, #11631017) cell lines were maintained in Dulbecco's Modified Eagle Medium, high glucose, pyruvate (DMEM, Gibco, #11995065) supplemented with 10% fetal bovine serum (FBS, Gibco, #10082147) and 1× penicillin-streptomycin (100× solution, Gibco, #15140148) at 37° C. and 5% CO2 in a water-saturated incubator. Cell were trypsinized using 0.05% or 0.25% Trypsin-EDTA solution (Trypsin-EDTA, phenol red, Gibco, #25200056 (0.25%) or #25300054). Opti-MEM media supplemented with 10% fetal bovine serum (Opti-MEM I reduced serum media, no phenol red, Gibco, #11058021) was used for culturing cells overnight for NanoBRET readout experiments.\nHEK293 cells were cultivated appropriately prior to assay. The medium from cell flask was removed via aspiration, washed 1× with PBS followed by aspiration, trypsinized, and cells were allowed to dissociate from the flask. Trypsin was neutralized using growth medium and cells were pelleted via centrifugation at 200×g for 5 minutes. The medium was aspirated and the cells were resuspended into a single cell suspension using Opti-MEM I supplemented with 10% FBS. The cell density was adjusted to 2×10^5/mL in Opti-MEM I supplemented with 10% FBS in a sterile, conical tube. […]\nA 10 μg/mL solution of DNA was prepared in Opti-MEM without serum. […] The plate on plate reader is read every hour for the next 6 hours."}, "[9]": {"system": "NCI-H1792 (Lung)", "test": "Cell proliferation assay (CellTiter-Glo, 3 days treatment), NCI-H1792", "assay_type": "cell-based", "settings": "Homo sapiens, 72 h, read-out: Absolute IC50", "excerpt": "as §1, §2, §3, §4"}, "[10]": {"system": "UM-UC-3 (bladder)", "test": "Cell proliferation assay (CellTiter-Glo, 3 days treatment), UM-UC-3", "assay_type": "cell-based", "settings": "Homo sapiens, UMUC3, 72 h, read-out: Absolute IC50", "excerpt": "as §1, §2, §3, §4"}, "[11]": {"system": "SW756 (Cervix)", "test": "Cell proliferation assay (CellTiter-Glo, 3 days treatment), SW756", "assay_type": "cell-based", "settings": "Homo sapiens, 72 h, read-out: Absolute IC50", "excerpt": "as §1, §2, §3, §4"}, "[12]": {"system": "NCI-H23 (Lung)", "test": "Cell proliferation assay (CellTiter-Glo, 3 days treatment), NCI-H23", "assay_type": "cell-based", "settings": "Homo sapiens, 72 h, read-out: Absolute IC50", "excerpt": "as §1, §2, §3, §4"}, "[13]": {"system": "SW837 (Rectum)", "test": "Cell proliferation assay (CellTiter-Glo, 3 days treatment), SW837", "assay_type": "cell-based", "settings": "Homo sapiens, 72 h, read-out: Absolute IC50", "excerpt": "as §1, §2, §3, §4"}, "[14]": {"system": "MIA PaCa-2 (Pancreas)", "test": "Cell proliferation assay (CellTiter-Glo, 3 days treatment), MIA PaCa-2", "assay_type": "cell-based", "settings": "Homo sapiens, 72 h, read-out: Absolute IC50", "excerpt": "as §1, §2, §3, §4"}}, "data": [{"smiles": "C=CC(=O)NCC(=O)N1CCN(Cc2cc3c(N4CCOCC4)nc(-c4cnc(NC(=O)OC)cc4C(F)(F)F)nn3c2)CC1", "note": "[Compound I, methyl (5-(6-((4-(acryloylglycyl)piperazin-1-yl)methyl)-4-morpholinopyrrolo[2,1-f][1,2,4]triazin-2-yl)-4-(trifluoromethyl)pyridin-2-yl) carbamate]", "values": [{"measurement": "IC50", "setting": "[1]", "result": 3.86, "unit": "µM"}, {"measurement": "IC50", "setting": "[2]", "result": 3.77, "unit": "µM"}, {"measurement": "IC50", "setting": "[3]", "result": 7.92, "unit": "µM"}, {"measurement": "IC50", "setting": "[4]", "result": "> 10", "unit": "µM"}, {"measurement": "IC50", "setting": "[5]", "result": 2.02, "unit": "µM"}, {"measurement": "IC50", "setting": "[6]; Homo sapiens, 72 h, NCI-H358 (Lung), 3 days treatment, read-out: Absolute IC50", "result": 1.69, "unit": "µM"}, {"measurement": "inhibitory effect on cell proliferation", "setting": "[6]; NCI-H358, 3 days treatment, CellTiter-Glo", "result": "substantial inhibitory effect"}, {"measurement": "IC50", "setting": "[7]", "result": "> 10", "unit": "µM"}, {"measurement": "inhibition of the PI3K target", "setting": "[8]", "result": "greater than 80%"}, {"measurement": "IC50", "setting": "[9]", "result": "> 10", "unit": "µM"}, {"measurement": "IC50", "setting": "[10]", "result": "> 10", "unit": "µM"}, {"measurement": "IC50", "setting": "[11]", "result": 7.29, "unit": "µM"}, {"measurement": "IC50", "setting": "[12]", "result": "> 10", "unit": "µM"}, {"measurement": "IC50", "setting": "[13]", "result": "> 10", "unit": "µM"}, {"measurement": "IC50", "setting": "[14]", "result": "> 10", "unit": "µM"}]}]}
